Test results: PMC5040747, “Preparation and Evaluation of a Novel Class of Amphiphilic Amines as Antitumor Agents and Nanocarriers for Bioactive Molecules” (Pharmaceutical Research, 2016)
Like-named read-outs stand apart in the source and are kept apart here.

Tests used:
CHLA-20 cells = assay: Cell killing activity of drugs complexed with RC16 (MTT); type: cell-based, human; settings: CHLA-20, free drug at concentration corresponding to that present in the complex, 48 h, percent of untreated cells
Protocol: (§1) Aqueous solutions of RC16 (10 mM, 1 mL) were mixed with ethanol solutions of Doxorubicin, Paclitaxel or Etoposide (1 mM, 1 mL). After stirring 12 h at 25 C the mixtures were dialyzed through 5000 Da MW cutoff dialysis membranes against 100 ml water by changing the external medium every 8 h for 3 days. The RC16-drug complex collected after dialysis was freeze-dried and the solid residue obtained was spectrophotometrically analysed to estimate the percentage of drug in the final product. The anticancer activity of each complexed drug was evaluated in CHLA-20 as the difference between the activity of the complex and the pure RC16 at the same concentration of the complex.

[1] = Encapsulation of drugs in RC16 micelles; type: physicochemical; settings: drug complexed in RC16 micelles, after dialysis and freeze-drying
Protocol: as §1

A673 = assay: MTT cell proliferation assay, A673; type: cell-based; settings: Homo sapiens, A673, Ewing's Sarcoma, read-out: Cell killing activity IC50
Protocol: (§2) Cells were plated in 96-well tissue culture plates at a density of 1 × 10^3 cells/well, allowed to attach 24 h, and then left untreated or treated with growth medium containing different concentrations of the tested RCn compounds previously dissolved in PBS. After different time periods the cell vitality was determined by MTT assay according to the manufacture’s instruction (Promega). Results are reported as the micromolar concentration of RCn reducing cell survival to 50% (IC50).

143.98.2 = assay: MTT cell proliferation assay, 143.98.2; type: cell-based; settings: Homo sapiens, 143.98.2, Osteosarcoma, read-out: Cell killing activity IC50
Protocol: as §2

SK-N-AS = assay: MTT cell proliferation assay, SK-N-AS; type: cell-based; settings: Homo sapiens, Neuroblastoma, read-out: Cell killing activity IC50
Protocol: as §2

S462TY = assay: MTT cell proliferation assay, S462TY; type: cell-based; settings: Homo sapiens, Malignant Peripheral Nerve Sheath Tumor, read-out: Cell killing activity IC50
Protocol: as §2

Ramos = assay: MTT cell proliferation assay, Ramos; type: cell-based; settings: Homo sapiens, Lymphoma, read-out: Cell killing activity IC50
Protocol: as §2

Rh41 = assay: MTT cell proliferation assay, Rh41; type: cell-based; settings: Homo sapiens, Rh41, Rhabdomyosarcoma, read-out: Cell killing activity IC50
Protocol: as §2

Compound | Cell viability, % CTR (free drug) (CHLA-20 cells) [% CTR] | Encapsulation efficiency (weight percentage of drug in the final complex) [1] [%] | IC50 (A673; 24 h) [nM] | IC50 (A673; 48 h) [nM] | IC50 (143.98.2; 24 h) [nM] | IC50 (143.98.2; 48 h) [nM] | IC50 (SK-N-AS; 24 h) [nM] | IC50 (SK-N-AS; 48 h) [nM] | IC50 (S462TY; 24 h) [nM] | IC50 (S462TY; 48 h) [nM] | IC50 (Ramos; 24 h) [nM] | IC50 (Ramos; 48 h) [nM] | IC50 (Rh41; 24 h) [nM] | IC50 (Rh41; 48 h) [nM]
COc1cccc2c1C(=O)c1c(O)c3c(c(O)c1C2=O)C[C@@](O)(C(=O)CO)C[C@@H]3O[C@H]1C[C@H](N)[C@H](O)[C@H](C)O1 [DOXO, Doxorubicin] | 27.62 ± 0.55 | 2.3 ± 0.78 |  |  |  |  |  |  |  |  |  |  |  | 
COc1cc([C@@H]2c3cc4c(cc3[C@@H](O[C@@H]3O[C@@H]5CO[C@@H](C)O[C@H]5[C@H](O)[C@H]3O)[C@H]3COC(=O)[C@H]23)OCO4)cc(OC)c1O [ETO, Etoposide] | 65.80 ± 5.76 | 1.0 ± 0.59 |  |  |  |  |  |  |  |  |  |  |  | 
CC(=O)O[C@H]1C(=O)[C@@]2(C)[C@H]([C@H](OC(=O)c3ccccc3)[C@]3(O)C[C@H](OC(=O)[C@H](O)[C@@H](NC(=O)c4ccccc4)c4ccccc4)C(C)=C1C3(C)C)[C@]1(OC(C)=O)CO[C@@H]1C[C@@H]2O [PTX, Paclitaxel] | 56.93 ± 4.61 | 1.8 ± 0.73 |  |  |  |  |  |  |  |  |  |  |  | 
CCCCCC1CN2CCCN3CCCCCC132 (stereo not drawn) [RC7, 2-pentyl-4,8-diazatricyclo[6.5.0.0^1,^4]tridecane] |  |  | 5730 | 4110 | 4510 | 3780 | 5210 | 3430 | 5620 | 3900 | 4550 | 3120 | 5780 | 4010
CCCCCCCCC1CN2CCCN3CCCCCC132 (stereo not drawn) [RC10, 2-octyl-4,8-diazatricyclo[6.5.0.0^1,^4]tridecane] |  |  | 2600 | 2020 | 2550 | 1680 | 2140 | 1560 | 2390 | 1780 | 2100 | 1030 | 2850 | 2030
CCCCCCCCCCC1CN2CCCN3CCCCCC132 (stereo not drawn) [RC12, 2-decyl-4,8-diazatricyclo[6.5.0.0^1,^4]tridecane] |  |  | 1820 | 1650 | 1980 | 1240 | 1870 | 710 | 2000 | 1090 | 1180 | 740 | 1750 | 1160
CCCCCCCCCCCCC1CN2CCCN3CCCCCC132 (stereo not drawn) [RC14, 2-dodecyl-4,8-diazatricyclo[6.5.0.0^1,^4]tridecane] |  |  | 1270 | 1130 | 1310 | 780 | 1200 | 630 | 1810 | 950 | 960 | 220 | 1360 | 970
CCCCCCCCCCCCCCCCC1CN2CCCN3CCCCCC132 (stereo not drawn) [RC18, 2-hexadecyl-4,8-diazatricyclo[6.5.0.0^1,^4]tridecane] |  |  | 1030 | 980 | 920 | 650 | 1230 | 750 | 1670 | 880 | 830 | 170 | 1010 | 820
CCCCCCCCCCCCCCCCCCC1CN2CCCN3CCCCCC132 (stereo not drawn) [RC20, 2-octadecyl-4,8-diazatricyclo[6.5.0.0^1,^4]tridecane] |  |  | 1220 | 1350 | 1090 | 830 | 1600 | 900 | 1830 | 1160 | 970 | 200 | 1680 | 1120
